The values below are quoted from earlier work in patent US10098898B1, “Release stable mesalamine dosage forms” (Handa Pharmaceuticals, LLC, priority 2017, dated 2018).

For this series the following is noted: 1% aqueous solution.

Consider `O=P([O-])([O-])O.[Na+].[Na+]` [disodium hydrogen phosphate], for which the pH entry was “about 9.1”.
